From patent publication US10688197B2, “Non-alcoholic fatty liver regulator 14-3-3 protein” (Korea University Research and Business Foundation, priority 2015, dated 2020) come the findings set out here.

The subject of one assay is HepG2 cells. As to the kind of experiment: Oil Red-O lipid accumulation in HepG2 cells. The format is cell-based, human. The note with it: for lipid accumulation by oleic acid: HepG2, overexpression, 200 μM oleic acid 72 hours, FIG. 9B. The method, then: (§1) HepG2 cells and primary mouse hepatocytes were separately seeded in a 6-well plate at a density of 4×10^5 cells per each well, and then transfected with GFP-14-3-3β DNA (1 μg) or GFP-14-3-3γ DNA (1 μg) and si-14-3-3β (10 μM, Santa Cruz) or si-14-3-3γ (10 μM, Santa Cruz) using an E-fection plus reagent (Lugen). A ratio of DNA to the E-fection plus reagent was 1:2, and this method was performed according to a manufacturer's manual. […] The stained cells were bleached with 1 ml of isopropanol and analyzed at a wavelength of 550 nm using a DU530 spectrophotometer (Beckman Instruments, Palo Alto, Calif.).

For assay [1], the system named is primary mouse hepatocytes. As to the kind of experiment: Oil Red-O lipid accumulation in primary mouse hepatocytes. Format: cell-based. The note with it: for lipid accumulation by oleic acid: overexpression, 200 μM oleic acid 72 hours, FIG. 9B. The method, then: as §1
Assay [2] relates to primary mouse hepatocytes. Nature of the assay: mRNA expression by real-time PCR in primary mouse hepatocytes. Format: cell-based. The note with it: for mRNA expression of SREBP-1c and FAT/CD36: overexpression, oleic acid, FIG. 7B. The procedure:
HepG2 cells and primary mouse hepatocytes were separately seeded in a 6-well plate at a density of 4×10^5 cells per each well, and then treated with 200 μM of oleic acid (OA) for 72 hours. For mRNA extraction, the corresponding cells were lysed with 1 ml/well of TRIzol (Invitrogen), 200 μl of chloroform was added thereto and mixed well, the resultant cells were maintained at room temperature for 5 minutes and then centrifuged at 12,000×g and 4° C. for 15 minutes, the obtained supernatant was mixed with 500 μl of isopropanol and then put on ice for 10 minutes, the resulting supernatant was centrifuged at 12,000×g and 4° C. for 15 minutes to remove a supernatant, and then pellets were dissolved with tertiary distilled water treated with diethyl pyrocarbonate (DEPC). 2 μg of mRNA was synthesized into cDNA using a Superscript First Strand cDNA Synthesis Kit (Bioneer, Daejeon, South Korea) and the synthesized cDNA as a template was amplified through polymerase chain reaction (PCR) using primers specific to PPARγ2, 14-3-3β, 14-3-3γ, SREBP-1c, SCD-1, ACC, FABP, FAT/CD36, and β-actin of humans, and was amplified through real-time PCR using primers specific to PPARγ2, 14-3-3β, 14-3-3γ, SREBP-1c, FAT/CD36, and GAPDH of mice. β-actin and GAPDH were used as controls to see whether mRNAs of the respective cells were compared in the same amount.
HepG2 cells were seeded in a 6-well plate at a density of 4×10^5 cells per each well, and then transfected with GFP-14-3-3β DNA (4 μg) or GFP-14-3-3γ DNA (4 μg) using an E-fection plus reagent (Lugen). A ratio of DNA to the E-fection plus reagent was 1:2, and this method was performed according to a manufacturer's manual. After transfection, the cells were treated with 200 μM of oleic acid (OA) for 72 hours, and for mRNA extraction, the corresponding cells were lysed with 1 ml/well of TRIzol (Invitrogen), 200 μl of chloroform was added thereto and mixed well, the resultant cells were maintained at room temperature for 5 minutes and then centrifuged at 12,000×g and 4° C. for 15 minutes, the obtained supernatant was mixed with 500 μl of isopropanol and then put on ice for 10 minutes, and the resulting supernatant was centrifuged at 12,000×g and 4° C. for 15 minutes to remove a supernatant, and then pellets were dissolved with tertiary distilled water treated with diethyl pyrocarbonate (DEPC). 2 μg of mRNA was synthesized into cDNA using a Superscript First Strand cDNA Synthesis Kit (Bioneer, Daejeon, South Korea) and the synthesized cDNA as a template was amplified through polymerase chain reaction (PCR) using primers specific to PPARγ2 (SEQ ID NOS: 1 and 2), 14-3-3β (SEQ ID NOS: 3 and 4), 14-3-3γ (SEQ ID NOS: 5 and 6), SREBP-1c, FAT/CD36, and β-actin of humans, and was amplified through real-time PCR using primers specific to SREBP-1c, FAT/CD36, and GAPDH of mice. β-actin and GAPDH were used as controls to see whether mRNAs of the respective cells were compared in the same amount.

Turning to “14-3-3β: 14-3-3 isoform protein overexpressed by DNA transfection; increases the transcriptional activity of PPARγ2 by binding to PPARγ2”, the “lipid accumulation by oleic acid” value (in the assay on HepG2 cells; in assay [1]) was “increased” throughout. Besides, in assay [2], the “mRNA expression of SREBP-1c and FAT/CD36” value is on record as “further increased”.
For `CCCCCCCC/C=C\CCCCCCCC(=O)O` [oleic acid], the lipid accumulation entry in the assay with HepG2 cells (HepG2, concentration-dependent treatment of oleic acid, FIG. 9A) was “increased”; in assay [1] (concentration-dependent treatment of oleic acid, FIG. 9A), “increased”. The “mRNA expression of PPARγ2” value in assay [2] (oleic acid concentration-dependent, FIG. 6B) is “increased”. The “mRNA expression of lipid metabolism-associated genes (PPARγ2 target genes)” value in assay [2] (oleic acid concentration-dependent, FIG. 6D) is reported as “increased”. In addition, the “mRNA expression amounts of 14-3-3β and 14-3-3γ” value in assay [2] (oleic acid treatment, FIG. 6B) is “no changes”.
With “14-3-3γ: 14-3-3 isoform protein overexpressed by DNA transfection; decreases the transcriptional activity of PPARγ2; proposed active ingredient”, the “lipid accumulation by oleic acid” value (with HepG2 cells; in assay [1]) was “reduced” throughout. The “mRNA expression of SREBP-1c and FAT/CD36” value in assay [2] is “reduced”.
